The structures appear in SMILES notation. Converted amounts (≈) assume the structure as drawn. Where two headings read alike, the source gives them in different places.

Data set [1] in a line: Dynamic vapor sorption (DVS). Format: physicochemical. To be noted: 25° C./80% RH. How it is done:
A dynamic vapor sorption (DVS) curve is obtained on DVS Intrinsic of Surface Measurement Systems (SMS). The relative humidity at 25° C. is corrected by using the deliquescence points of LiCl, Mg(NO3)2 and KCl.
A free base (9.1 g, 15.3 mmol) of 2-((2-ethyl-6-fluoro-5-(4-(2-(3-hydroxyazetidin-1-yl)-2-oxoethyl)piperazin-1-yl)pyrazolo[1,5-a]pyridin-3-yl)(methyl-d3)amino)-4-(4-fluorophenyl)thiazole-5-carbonitrile (compound A, i.e., compound 3) prepared in example 3 was added to ethanol (50 mL), warmed to 75° C., stirred for 2 h and then dissolved. The mixture was gradually cooled to room temperature under slow stirring, with a large amount of white solids precipitated out, and filtered by suction. The filter cake was washed with ethanol (10 mL), and then dried under vacuum at 40° C. for 24 h to obtain a crystal form I of compound A as a white solid (6.2 g, yield: 68%). […] (initial temperature).

A short description of data set [2]: Dynamic solubility test in water and biological vehicles. The data set is classed as physicochemical. The settings on record: 37° C.; for solubility at 1 h / solubility at 2 h / solubility at 4 h / solubility at 24 h: read-out: S: Solubility; for pH: filtrate; for S: Solubility: LOQ: 0.03 μg/mL. How it is done:
The dynamic solubility of the crystal form I of compound A (example 11) in water and three biological vehicles was evaluated. […] The samples at each time point were centrifuged (12000 rpm, 5 min) and filtered (0.45 μm PTFE filter), and the HPLC concentration and pH value of the filtrates were measured.
Preparation of simulated gastric fluid (SGF): 0.1 g of NaCl and 0.05 g of Triton X-100 were weighted to a 50 mL volumetric flask, and purified water was added to obtain a clear solution. 67.5 μL of concentrated hydrochloric acid (12 M) was added, and the pH was adjusted to 1.8 with 1 M hydrochloric acid or a 1 M NaOH solution. Purified water was added to a constant volume.
Preparation of simulated intestinal fluid (FaSSIF) in a fasted state: 0.17 g of anhydrous NaH2PO4, 0.021 g of NaOH and 0.31 g of NaCl were weighed to a 50 mL volumetric flask. About 48 mL of purified water was added to obtain a clear solution, and the pH was adjusted to 6.5 with 1 M hydrochloric acid or a 1 M NaOH solution. Purified water was added to a constant volume, and 0.11 g of SIF powder was weighed to obtain a clear solution.
Preparation of simulated intestinal fluid (FeSSIF) in a feeding state: 0.41 mL of glacial acetic acid, 0.20 g of NaOH and 0.59 g of NaCl were weighed to a 50 mL volumetric flask. About 48 mL of purified water was added to obtain a clear solution, and the pH was adjusted to 5.0 with 1 M hydrochloric acid or a 1 M NaOH solution. Purified water was added to a constant volume, and 0.56 g of SIF powder was weighed to obtain a clear solution.

Data set [3] in a line: Stability test of crystal form (purity and crystal form change on storage). Format: physicochemical. The settings on record: for Crystal form change / Purity: 12 days. How it is done:
The crystal form I (example 11) was placed at 25° C./60% RH and 40° C./75% RH for 12 days; and then the sample purity was detected, and the crystal form change was observed.

The conditions of data set [4]: phase II clinical trial; cited from earlier work.

Usually solubility stands for the dissolved amount per volume that the medium holds. In data set [1], `[2H]C([2H])([2H])N(c1nc(-c2ccc(F)cc2)c(C#N)s1)c1c(CC)nn2cc(F)c(N3CCN(CC(=O)N4CC(O)C4)CC3)cc12` [Compound A Crystal form I, 2-((2-ethyl-6-fluoro-5-(4-(2-(3-hydroxyazetidin-1-yl)-2-oxoethyl)piperazin-1-yl)pyrazolo[1,5-a]pyridin-3-yl)(methyl-d3)amino)-4-(4-fluorophenyl)thiazole-5-carbonitrile] came in with a water adsorption of 0.20%. Further, the solubility at 1 h in data set [2] (fasted-state simulated intestinal fluid (FaSSIF), pH 6.5, thermodynamic from solid, vehicle FaSSIF, 1 h) is 320 µg/mL (≈ 537 µM); in data set [2] (simulated gastric fluid (SGF), pH 1.8, simulated gastric fluid, thermodynamic from solid, vehicle SGF, 1 h), 15 µg/mL (≈ 25.2 µM); in data set [2] (water, thermodynamic from solid, vehicle H2O, 1 h), above 5100 µg/mL. Further, the solubility at 2 h in data set [2] (fasted-state simulated intestinal fluid (FaSSIF), pH 6.5, thermodynamic from solid, vehicle FaSSIF, 2 h) is 270 µg/mL (≈ 453 µM); in data set [2] (simulated gastric fluid (SGF), pH 1.8, simulated gastric fluid, thermodynamic from solid, vehicle SGF, 2 h), 15 µg/mL (≈ 25.2 µM); in data set [2] (water, thermodynamic from solid, vehicle H2O, 2 h), above 5200 µg/mL. The solubility at 4 h was 360 µg/mL (≈ 604 µM) in data set [2] (fasted-state simulated intestinal fluid (FaSSIF), pH 6.5, thermodynamic from solid, vehicle FaSSIF, 4 h); 14 µg/mL (≈ 23.5 µM) in data set [2] (simulated gastric fluid (SGF), pH 1.8, simulated gastric fluid, thermodynamic from solid, vehicle SGF, 4 h); above 5300 µg/mL in data set [2] (water, thermodynamic from solid, vehicle H2O, 4 h). Further, the solubility at 24 h in data set [2] (fasted-state simulated intestinal fluid (FaSSIF), pH 6.5, thermodynamic from solid, vehicle FaSSIF, 24 h) was 210 µg/mL (≈ 353 µM); in data set [2] (simulated gastric fluid (SGF), pH 1.8, simulated gastric fluid, thermodynamic from solid, vehicle SGF, 24 h), 14 µg/mL (≈ 23.5 µM); in data set [2] (water, thermodynamic from solid, vehicle H2O, 24 h), above 5300 µg/mL. Besides, the pH in data set [2] (vehicle FaSSIF, 1 h) is 4.9; in data set [2] (vehicle FaSSIF, 2 h), 5.0; in data set [2] (vehicle FaSSIF, 4 h), 4.9; in data set [2] (vehicle FaSSIF, 24 h), 4.9; in data set [2] (vehicle FeSSIF, 1 h), 8.5; in data set [2] (vehicle FeSSIF, 2 h) it was 8.5. Further, the pH in data set [2] (vehicle FeSSIF, 4 h) is reported as 8.5; in data set [2] (vehicle FeSSIF, 24 h), 8.5; in data set [2] (vehicle H2O, 1 h), 2.0; in data set [2] (vehicle H2O, 2 h), 2.2; in data set [2] (vehicle H2O, 4 h), 2.0; in data set [2] (vehicle H2O, 24 h), 2.1. Besides, the pH in data set [2] (vehicle SGF, 1 h) stood at 6.4; in data set [2] (vehicle SGF, 2 h), 6.5; in data set [2] (vehicle SGF, 4 h), 6.4; in data set [2] (vehicle SGF, 24 h), 6.4. The “S: Solubility” value in data set [2] (vehicle FeSSIF, 1 h) is on record as “<LOQ”; in data set [2] (vehicle FeSSIF, 2 h), “<LOQ”; in data set [2] (vehicle FeSSIF, 4 h) it was “<LOQ”; in data set [2] (vehicle FeSSIF, 24 h), “<LOQ”. Besides, the Crystal form change result in data set [3] (25° C./60% RH) and in data set [3] (40° C./75% RH) was “No” each time. Further, the Purity in data set [3] (25° C./60% RH) is 99.41 area %; in data set [3] (40° C./75% RH), 99.44 area %. The Initial purity in data set [3] (before storage) is 99.76 area %.

Turning to `CCc1nc2c(C)cc(N3CCN(CC(=O)N4CC(O)C4)CC3)cn2c1N(C)c1nc(-c2ccc(F)cc2)c(C#N)s1` [GLPG-1690], the “Curative effect in IPF” value in data set [4] is listed as “good curative effect”.

The values are drawn from patent US20240317736A1, “DEUTERATED DERIVATIVE AS ATX INHIBITOR, AND APPLICATION THEREOF” (Xizang Haisco Pharmaceutical Co., Ltd., priority 2020, published 2024).
